Experimental data as given in paper PMC12495443, “Developing inhibitors of the guanosine triphosphate hydrolysis accelerating activity of Regulator of G protein Signaling-14 [drawing 1]” (The Journal of Biological Chemistry, 2025).
pIC50: −log10 of the molar value. Like-named read-outs stand apart in the source and are kept apart here.

Assays:
[1] = target: T1, human RGS14 RGS-box (wild-type) (Homo sapiens, UniProt O43566); test: Transcreener GDP RGScreen fluorescence polarization assay of RGS14 RGS-box GAP activity on Gαi1(DM); type: biochemical; conditions: for Ratio (RGS14 pIC50 / RGS12 pIC50): values > 1.0 reflect RGS14 selectivity; for IC50 / RGS14 pIC50: wild-type RGS14 RGS-box GAP activity, Gαi1(DM); for IC50: read-out: RGS14 pIC50 (converted)
T1 construct: human RGS14 RGS-box (aa 46–195 of UniProt O43566); host or cells: E. coli
T1 sequence (O43566 46-195): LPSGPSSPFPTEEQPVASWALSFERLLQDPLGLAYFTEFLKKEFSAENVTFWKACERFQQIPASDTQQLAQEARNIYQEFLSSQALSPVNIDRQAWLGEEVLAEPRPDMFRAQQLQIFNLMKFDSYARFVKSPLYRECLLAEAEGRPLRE
Description: (§1) We previously described work with BellBrook Labs creating the Transcreener GDP RGScreen fluorescence polarization assay of steady-state GTP hydrolysis, leveraging a double point-mutant in the Gα enzyme to make GTP hydrolysis, rather than GDP (product) release, the rate-limiting step for multiple rounds of GTP conversion ([57], [59]). […] Titrating inputs of the double point-mutant (“DM”) Gαi1 and RGS-box recombinant proteins (Fig. S2, B and C) established a robust, medium-throughput assay for evaluating potential RGS14 and RGS12 inhibitors, with “assay quality” Z′ scores ([60]) above 0.76 for each target (Fig. S2D).
(§2) Reagents and protocols for the fluorescence anisotropy-based Transcreener GDP RGScreen assay using a rate-altered, double point-mutant, recombinant Gαi1 protein have been extensively described previously ([43], [44]); reactions were always performed so that total GTP converted over the time course was consistently less than 10% of reaction maximum input. Specific methods for its application in assessing RGS14 and RGS12 GAP activity are summarized as follows. Open-reading frames (ORFs) encoding wild-type versions of the human RGS14 RGS-box (aa 46–195 of UniProt O43566) and human RGS12 RGS-box (aa 695–843 of UniProt O14924) were each sub-cloned in-frame with an N-terminal hexahistidine (His6) expression tag in the plasmid pET30a, expressed in E. coli cultures, and then purified by nickel-nitriloacetate (Ni-NTA) and size-exclusion (Superdex 200) column chromatographies by GenScript using previously described methods ([35]). These recombinant His6-tag fusion proteins were stored at −80 °C in storage buffer (150 mM NaCl, 50 mM Tris-HCl pH 8.0, 10% glycerol) before thawing and use. Cysteine-less versions were similarly produced by ORF site-directed mutagenesis: for RGS14, codons for cysteine residues 47 and 130 (numbered as in PDB id 2JNU) were replaced with serine codons; for RGS12, codons for cysteines 4, 51, 78, and 134 (numbered in relation to PDB id 2EBZ) were replaced with serine codons. Use of Transcreener GDP-detection reagents to assess compound inhibition of Naegleria fowleri Gα7 protein GTPase activity ([83]) has previously been described ([84]).

[2] = target: T2, human RGS12 RGS-box (wild-type) (Homo sapiens, UniProt O14924); test: Transcreener GDP RGScreen fluorescence polarization assay of RGS12 RGS-box GAP activity on Gαi1(DM); type: biochemical; conditions: for IC50 / RGS12 pIC50: wild-type RGS12 RGS-box GAP activity, Gαi1(DM); for IC50: read-out: RGS12 pIC50 (converted)
T2 construct: human RGS12 RGS-box (aa 695–843 of UniProt O14924); host or cells: E. coli
T2 sequence (O14924 695-843): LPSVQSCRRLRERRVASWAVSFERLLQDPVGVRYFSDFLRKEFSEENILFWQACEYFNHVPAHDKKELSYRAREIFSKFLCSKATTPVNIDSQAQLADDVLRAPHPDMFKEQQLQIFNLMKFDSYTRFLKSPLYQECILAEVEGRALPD
Description: as §1, §2

Row | Structure (SMILES) | Ratio (RGS14 pIC50 / RGS12 pIC50) [1] | IC50 ([1]; Transcreener GDP RGScreen) [µM] | IC50 [2] [µM] | other results
1 | O=c1[nH]c(-c2ccc(C(F)(F)F)cc2)nn1-c1cc(Cl)ccc1O [BMS-192364, reference compound] |  |  |  | inhibition of RGS14 RGS-box GAP activity (in words) ([1]; Transcreener GDP RGScreen): inactive; inhibition of RGS12 RGS-box GAP activity (in words) [2]: inactive
2 | CC(C)c1nnc2n1N=C(c1cc3ccccc3o1)CS2 [Z55627782] | 0.82 | 191 | 27.5 | 
3 | COc1ccc(OCc2nnc3n2N=C(c2ccc(NC(C)=O)cc2)CS3)cc1 [Z55660046] |  | > 1000 | 155 | 
4 | COc1ccc(OCc2nnc3n2N=C(c2ccc(C)cc2)[C@@H](C)S3)cc1 [Z55660052] | 0.86 | 20.4 | 3.63 | 
5 | CC(C)(C)c1ccc(C2=Nn3c(nnc3-c3ccco3)SC2)cc1 [Z55660110] |  | 56.2 | 53.7 | 
6 | c1ccc2c(c1)OC[C@@H](c1nnc3n1N=C(c1ccc4c(c1)OCCO4)CS3)O2 [Z55660304] | 0.90 | 28.8 | 8.71 | 
7 | Fc1ccccc1OCc1nnc2n1N=C(c1ccc(Cl)cc1)CS2 [Z55660438] | 0.77 | 234 | 20.4 | 
8 | CCCc1ccc(C2=Nn3c(COc4ccccc4F)nnc3SC2)cc1 [Z55660462] | 0.96 | 16.6 | 10.5 | 
9 | Cc1ccc(C2=Nn3c(COc4ccc(Cl)cc4)nnc3SC2)c(C)c1 [Z55660524] | 0.82 | 170 | 26.9 | 
10 | CC1Sc2nnc(Cc3ccc(Br)cc3)n2N=C1c1ccc(Cl)cc1 (centres unmarked) [Z55660592] | 0.93 | 21.4 | 10 | 
11 | COc1ccc(Cc2nnc3n2N=C(c2ccc(C)c(C)c2)[C@@H](C)S3)cc1OC [Z55660805] | 0.91 | 75.9 | 29.5 | 
12 | FC(F)Oc1ccc(C2=Nn3c(COc4ccccc4)nnc3SC2)cc1 [Z56840012] | 0.90 | 36.3 | 11.5 | 
13 | CCN(CC)S(=O)(=O)c1cccc(-c2nnc3n2N=C(c2ccc(C)cc2)C(CC(=O)O)S3)c1 (centres unmarked) [Z90274338] | 1.14 | 93.3 | 288 | 
14 | Cc1ccc(C2=Nn3c(nnc3C3CC3)SC2CC(=O)O)cc1 (centres unmarked) [Z90274594] | 0.85 | 275 | 66.1 | 
15 | O=C(O)CC1Sc2nnc(C3CC3)n2N=C1c1ccccc1 (centres unmarked) [Z90274597] | 0.92 | 302 | 151 | 
16 | O=C(O)CC1Sc2nnc(C3CC3)n2N=C1c1ccc(F)cc1 (centres unmarked) [Z90274599] | 0.92 | 91.2 | 41.7 | 
17 | O=C(O)CC1Sc2nnc(C3COc4ccccc4O3)n2N=C1c1cccs1 (centres unmarked) [Z90275816] | 1.08 | 20.4 | 44.7 | 
18 | Cc1ccc(C2=Nn3c(COc4ccc(Cl)cc4)nnc3SC2CC(=O)O)cc1 (centres unmarked) [Z90276194] | 1.00 |  |  | RGS14 pIC50 ([1]; Transcreener GDP RGScreen): 4.21; RGS12 pIC50 [2]: 4.21
19 | O=C(O)C[C@@H]1Sc2nnc(-c3ccco3)n2N=C1c1ccccc1 [Z90276389] | 1.00 | 79.4 | 83.2 | 
20 | O=C(O)CC1Sc2nnc(Cc3ccc(Br)cc3)n2N=C1c1ccc(Cl)cc1 (centres unmarked) [Z90276771] | 0.91 |  |  | RGS14 pIC50 ([1]; Transcreener GDP RGScreen): 4.53; RGS12 pIC50 [2]: 4.96
21 | C[C@H]1Sc2nnc(Cc3ccc(Br)cc3)n2N=C1c1ccc(NS(C)(=O)=O)cc1 [Z90276813] | 0.85 | 72.4 | 13.5 | 
22 | COc1ccc(-c2nnc3n2N=C(c2ccc(NC(C)=O)cc2)[C@@H](C)S3)cc1OC [Z90277200] | 0.96 | 30.2 | 18.6 | 
23 | O=C(O)C[C@@H]1Sc2nnc(CCC3CCCCC3)n2N=C1c1ccccc1 [Z90277285] | 0.96 | 38 | 24 | 
24 | CSc1nnc2n1N=C(c1ccc(NC(=O)C(C)C)cc1)[C@H](C)S2 [Z90277842] | 0.94 | 107 | 61.7 | 
25 | C1CC[C@H]2Sc3nnc([C@H]4CCCO4)n3N=C2C1 [Z90278035] | 0.93 | 61.7 | 30.2 | 
26 | O=C(O)CC1Sc2nnc(C3CCCO3)n2N=C1c1ccc(Cl)cc1 (centres unmarked) [Z90278051] | 1.07 | 56.2 | 107 | 
27 | COc1ccc(OCc2nnc3n2N=C(c2cc(C)n(-c4nccs4)c2C)CS3)cc1 [Z667824954] | 0.87 | 219 | 64.6 | 
28 | COc1ccc(OCc2nnc3n2N=C(c2cccc(N4CCCC4=O)c2)CS3)cc1 [Z667824974] | 0.87 | 646 | 224 | 

Now from value to compound, other results behind:

Row | Ratio (RGS14 pIC50 / RGS12 pIC50) [1] | IC50 ([1]; Transcreener GDP RGScreen) [µM] | IC50 [2] [µM] | Structure (SMILES) | other results
29 |  | 4.07 | 4.07 | Cc1ccc(C2=Nn3c(COc4ccccc4)nnc3SC2)c(C)c1 [Z55659515] | 
30 | 0.85 | 191 | 42.7 | COc1cccc(C2=Nn3c(COc4ccc(Cl)cc4)nnc3SC2)c1 [Z55660496] | 
31 | 0.90 |  |  | COc1ccc(Cc2nnc3n2N=C(c2ccccc2)C(C)S3)cc1OC (centres unmarked) [Z55660788] | RGS14 pIC50 ([1]; Transcreener GDP RGScreen): 4.03; RGS12 pIC50 [2]: 4.50
32 | 0.94 |  | 42.7 | O=C(O)C[C@@H]1Sc2nnc(COc3ccc(Cl)cc3)n2N=C1c1ccccc1 [Z90276197, 2-{3-[(4-chlorophenoxy)methyl]-6-phenyl-5H-[1,2,4]triazolo[3,4-b][1,3,4]thiadiazin-7-yl}acetic acid] | pIC50 ([1]; wild-type RGS14 RGS-box, Transcreener GDP RGScreen, read-out: IC50 against RGS14 RGS-box GAP activity): 4.09
33 | 0.96 | 93.3 | 61.7 | O=C(O)C[C@@H]1Sc2nnc(-c3ccco3)n2N=C1c1ccc(F)cc1 [Z90276391] | 
34 | 1.00 | 170 | 174 | COc1cccc(OCc2nnc3n2N=C(c2ccccc2)[C@H](CC(=O)O)S3)c1 [Z90278437] | 
35 | 0.92 | 102 | 44.7 | CCOc1ccccc1-c1nnc2n1N=C(c1ccc(NC(=O)C(C)C)cc1)[C@@H](C)S2 [Z90278674] | 
36 |  | > 1000 |  | COc1ccc2nc(SCCOCC3CCCO3)[nH]c2c1 (centres unmarked) [Z1258859165] | 
37 |  | > 1000 |  | CCC(Sc1nc2ccc(OC)cc2[nH]1)C(=O)c1ccc(NC(C)=O)cc1 (centres unmarked) [Z1340653159] | 
38 |  | > 1000 |  | COc1ccc2nc(SC(C)C(=O)c3ccco3)[nH]c2c1 (centres unmarked) [Z3277796272] | 
39 |  | > 1000 |  | CCn1c(SC(C)C(=O)c2c(F)cc(F)cc2F)nc2cc(S(=O)(=O)N3CCCCC3)ccc21 (centres unmarked) [Z5032180738] | 
40 |  | > 1000 |  | Cc1ccc2[nH]c(SC(C)C(=O)c3cccc(F)c3)nc2c1 (centres unmarked) [Z5032180743] | 
41 |  | > 1000 |  | COc1ccc(C(=O)C(C)Sc2nc3cc(C)ccc3[nH]2)cc1Cl (centres unmarked) [Z5032180749] | 
42 |  | > 1000 |  | COc1ccc(-n2c(SC(C)C(=O)c3c(F)cc(F)cc3F)nc3ccccc32)cc1 (centres unmarked) [Z5032180751] | 
43 |  | > 1000 |  | COc1ccc2nc(SC(C)C(=O)c3cccc(F)c3)[nH]c2c1 (centres unmarked) [Z5032180758] | 
44 |  | > 1000 |  | COc1ccc2nc(SC(C(=O)OC(C)(C)C)C(C)C)[nH]c2c1 (centres unmarked) [Z5032180761] | 
45 |  | > 1000 |  | CCC(Sc1nc2ccc(OC)cc2[nH]1)C(=O)c1ccc(OC)cc1 (centres unmarked) [Z5032180767] | 
46 |  | > 1000 |  | CCC(Sc1nc2ccc(OC)cc2[nH]1)C(=O)c1ccc(Cl)cc1 (centres unmarked) [Z5032180785] | 
47 |  | > 1000 |  | COc1ccc2nc(SC(C)C(=O)c3ccccc3C(F)(F)F)[nH]c2c1 (centres unmarked) [Z5032180788] | 
